The values below come from ChEMBL document CHEMBL3991601, “The target landscape of clinical kinase drugs” (Science, 2017).

Assay [1] addresses T1, Acyl-CoA dehydrogenase family member 10 (Homo sapiens, UniProt Q6JQN1).
T1 sequence (Q6JQN1 whole entry): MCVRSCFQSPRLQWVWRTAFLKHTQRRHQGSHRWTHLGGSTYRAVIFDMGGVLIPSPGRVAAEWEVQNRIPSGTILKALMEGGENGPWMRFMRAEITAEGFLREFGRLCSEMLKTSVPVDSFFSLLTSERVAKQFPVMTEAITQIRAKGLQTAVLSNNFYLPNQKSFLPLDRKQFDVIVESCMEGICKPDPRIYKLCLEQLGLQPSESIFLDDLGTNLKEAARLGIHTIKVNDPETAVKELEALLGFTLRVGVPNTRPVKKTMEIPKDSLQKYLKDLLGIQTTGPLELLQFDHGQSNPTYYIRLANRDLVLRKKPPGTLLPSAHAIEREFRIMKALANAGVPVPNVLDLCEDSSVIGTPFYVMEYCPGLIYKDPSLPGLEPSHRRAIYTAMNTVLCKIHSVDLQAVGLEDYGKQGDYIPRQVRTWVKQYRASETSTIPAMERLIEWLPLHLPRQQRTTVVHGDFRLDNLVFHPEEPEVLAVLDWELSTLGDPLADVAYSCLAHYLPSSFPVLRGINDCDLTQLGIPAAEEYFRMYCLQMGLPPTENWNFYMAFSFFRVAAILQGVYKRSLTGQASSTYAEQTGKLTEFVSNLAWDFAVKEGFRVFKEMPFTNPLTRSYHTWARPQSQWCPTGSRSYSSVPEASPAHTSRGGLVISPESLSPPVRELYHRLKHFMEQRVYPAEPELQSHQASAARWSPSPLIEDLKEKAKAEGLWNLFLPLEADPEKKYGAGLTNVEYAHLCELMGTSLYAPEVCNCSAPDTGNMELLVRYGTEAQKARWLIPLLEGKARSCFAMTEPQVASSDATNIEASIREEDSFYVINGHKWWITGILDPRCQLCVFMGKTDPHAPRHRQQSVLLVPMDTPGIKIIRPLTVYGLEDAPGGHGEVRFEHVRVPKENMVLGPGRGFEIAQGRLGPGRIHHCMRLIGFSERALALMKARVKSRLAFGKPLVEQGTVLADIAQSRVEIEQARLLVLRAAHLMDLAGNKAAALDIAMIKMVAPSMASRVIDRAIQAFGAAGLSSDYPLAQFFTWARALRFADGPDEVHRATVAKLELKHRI

The target in assay [2] is T2, Very long-chain specific acyl-CoA dehydrogenase, mitochondrial (Homo sapiens, UniProt P49748).
T2 sequence (P49748 whole entry): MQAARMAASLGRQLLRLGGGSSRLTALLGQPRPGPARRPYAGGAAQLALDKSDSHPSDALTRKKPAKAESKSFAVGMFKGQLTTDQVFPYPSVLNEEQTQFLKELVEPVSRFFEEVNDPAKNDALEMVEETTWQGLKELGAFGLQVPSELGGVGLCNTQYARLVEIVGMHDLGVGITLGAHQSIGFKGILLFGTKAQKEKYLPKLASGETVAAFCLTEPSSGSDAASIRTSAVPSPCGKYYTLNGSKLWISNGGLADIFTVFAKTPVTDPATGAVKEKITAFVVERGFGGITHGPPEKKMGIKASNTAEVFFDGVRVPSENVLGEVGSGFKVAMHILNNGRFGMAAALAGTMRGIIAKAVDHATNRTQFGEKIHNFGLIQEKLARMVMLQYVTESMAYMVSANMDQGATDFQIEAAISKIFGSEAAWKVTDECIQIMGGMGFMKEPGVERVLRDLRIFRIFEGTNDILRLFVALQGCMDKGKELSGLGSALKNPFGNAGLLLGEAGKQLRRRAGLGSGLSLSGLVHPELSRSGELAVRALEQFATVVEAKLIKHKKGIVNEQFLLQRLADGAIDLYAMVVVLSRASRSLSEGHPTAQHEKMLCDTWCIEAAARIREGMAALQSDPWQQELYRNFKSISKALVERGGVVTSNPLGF

The target of another assay is Adenosine kinase (Homo sapiens, UniProt P55263).
Chain of Adenosine kinase (P55263 whole entry): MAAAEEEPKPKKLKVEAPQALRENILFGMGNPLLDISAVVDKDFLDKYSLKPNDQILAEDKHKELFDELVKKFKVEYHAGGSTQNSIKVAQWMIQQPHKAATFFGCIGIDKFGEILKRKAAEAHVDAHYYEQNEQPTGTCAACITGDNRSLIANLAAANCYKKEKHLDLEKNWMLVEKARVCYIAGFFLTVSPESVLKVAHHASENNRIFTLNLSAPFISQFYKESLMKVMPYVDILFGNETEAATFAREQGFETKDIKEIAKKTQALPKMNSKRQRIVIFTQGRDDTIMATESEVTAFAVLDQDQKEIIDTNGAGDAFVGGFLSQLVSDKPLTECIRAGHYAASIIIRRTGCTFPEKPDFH
For assay [3], the target named is BMP-2-inducible protein kinase (Homo sapiens, UniProt Q9NSY1).
Chain of BMP-2-inducible protein kinase (Q9NSY1 whole entry): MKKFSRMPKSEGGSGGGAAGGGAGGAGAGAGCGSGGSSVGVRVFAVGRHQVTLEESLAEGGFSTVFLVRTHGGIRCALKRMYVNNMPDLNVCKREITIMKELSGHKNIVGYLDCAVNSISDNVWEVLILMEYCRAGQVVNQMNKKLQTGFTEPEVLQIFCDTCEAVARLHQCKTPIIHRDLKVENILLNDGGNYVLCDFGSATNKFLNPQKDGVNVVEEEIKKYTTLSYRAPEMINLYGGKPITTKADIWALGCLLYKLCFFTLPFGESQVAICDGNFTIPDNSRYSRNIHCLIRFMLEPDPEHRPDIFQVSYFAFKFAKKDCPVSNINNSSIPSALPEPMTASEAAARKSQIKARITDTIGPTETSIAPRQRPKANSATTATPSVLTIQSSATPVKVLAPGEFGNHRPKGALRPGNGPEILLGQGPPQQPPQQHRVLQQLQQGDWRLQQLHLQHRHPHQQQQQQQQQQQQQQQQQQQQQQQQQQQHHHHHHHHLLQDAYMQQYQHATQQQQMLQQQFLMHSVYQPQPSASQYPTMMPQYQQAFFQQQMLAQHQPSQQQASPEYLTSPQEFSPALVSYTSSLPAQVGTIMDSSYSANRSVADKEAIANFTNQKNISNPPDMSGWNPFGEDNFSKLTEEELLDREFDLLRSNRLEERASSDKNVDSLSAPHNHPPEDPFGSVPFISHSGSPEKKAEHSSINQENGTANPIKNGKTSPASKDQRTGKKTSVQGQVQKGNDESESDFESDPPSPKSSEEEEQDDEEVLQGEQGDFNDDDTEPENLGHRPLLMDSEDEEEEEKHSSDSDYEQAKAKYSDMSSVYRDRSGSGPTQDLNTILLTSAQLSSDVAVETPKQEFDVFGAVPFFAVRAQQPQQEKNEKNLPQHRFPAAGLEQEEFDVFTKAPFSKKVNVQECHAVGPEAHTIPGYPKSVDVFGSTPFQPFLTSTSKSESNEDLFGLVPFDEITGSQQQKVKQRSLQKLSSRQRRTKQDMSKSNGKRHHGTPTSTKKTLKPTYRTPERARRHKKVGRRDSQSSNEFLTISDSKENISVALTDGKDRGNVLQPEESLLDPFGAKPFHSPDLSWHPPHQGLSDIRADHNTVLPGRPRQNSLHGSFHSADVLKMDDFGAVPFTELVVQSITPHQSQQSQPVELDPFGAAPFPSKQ
Assay [4] addresses Putative heat shock protein HSP 90-beta 2 (Homo sapiens, UniProt Q58FF8).
The target of assay [5] is T3, Inhibitor of nuclear factor kappa-B kinase subunit epsilon (Homo sapiens, UniProt Q14164).
T3 sequence (Q14164 whole entry): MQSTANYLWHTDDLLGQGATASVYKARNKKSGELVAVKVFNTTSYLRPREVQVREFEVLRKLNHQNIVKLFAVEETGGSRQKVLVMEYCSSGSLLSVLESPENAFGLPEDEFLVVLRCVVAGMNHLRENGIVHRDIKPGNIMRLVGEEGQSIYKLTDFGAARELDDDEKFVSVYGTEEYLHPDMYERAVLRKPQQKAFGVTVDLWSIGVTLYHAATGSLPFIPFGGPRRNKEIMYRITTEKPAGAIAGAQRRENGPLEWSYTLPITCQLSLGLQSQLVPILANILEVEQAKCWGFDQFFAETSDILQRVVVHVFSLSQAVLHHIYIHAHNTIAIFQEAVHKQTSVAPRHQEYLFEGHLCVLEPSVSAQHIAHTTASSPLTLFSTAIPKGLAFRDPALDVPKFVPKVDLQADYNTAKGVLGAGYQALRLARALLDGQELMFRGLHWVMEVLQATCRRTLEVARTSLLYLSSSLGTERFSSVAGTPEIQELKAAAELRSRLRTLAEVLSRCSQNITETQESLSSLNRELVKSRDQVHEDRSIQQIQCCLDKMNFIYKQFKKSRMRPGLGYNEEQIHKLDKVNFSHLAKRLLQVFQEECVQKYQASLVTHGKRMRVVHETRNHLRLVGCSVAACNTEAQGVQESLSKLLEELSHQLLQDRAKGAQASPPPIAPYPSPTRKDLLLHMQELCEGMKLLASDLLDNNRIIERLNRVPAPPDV

Assay [6] deals with Mitogen-activated protein kinase 7 (Homo sapiens, UniProt Q13164).
Chain of Mitogen-activated protein kinase 7 (Q13164 whole entry): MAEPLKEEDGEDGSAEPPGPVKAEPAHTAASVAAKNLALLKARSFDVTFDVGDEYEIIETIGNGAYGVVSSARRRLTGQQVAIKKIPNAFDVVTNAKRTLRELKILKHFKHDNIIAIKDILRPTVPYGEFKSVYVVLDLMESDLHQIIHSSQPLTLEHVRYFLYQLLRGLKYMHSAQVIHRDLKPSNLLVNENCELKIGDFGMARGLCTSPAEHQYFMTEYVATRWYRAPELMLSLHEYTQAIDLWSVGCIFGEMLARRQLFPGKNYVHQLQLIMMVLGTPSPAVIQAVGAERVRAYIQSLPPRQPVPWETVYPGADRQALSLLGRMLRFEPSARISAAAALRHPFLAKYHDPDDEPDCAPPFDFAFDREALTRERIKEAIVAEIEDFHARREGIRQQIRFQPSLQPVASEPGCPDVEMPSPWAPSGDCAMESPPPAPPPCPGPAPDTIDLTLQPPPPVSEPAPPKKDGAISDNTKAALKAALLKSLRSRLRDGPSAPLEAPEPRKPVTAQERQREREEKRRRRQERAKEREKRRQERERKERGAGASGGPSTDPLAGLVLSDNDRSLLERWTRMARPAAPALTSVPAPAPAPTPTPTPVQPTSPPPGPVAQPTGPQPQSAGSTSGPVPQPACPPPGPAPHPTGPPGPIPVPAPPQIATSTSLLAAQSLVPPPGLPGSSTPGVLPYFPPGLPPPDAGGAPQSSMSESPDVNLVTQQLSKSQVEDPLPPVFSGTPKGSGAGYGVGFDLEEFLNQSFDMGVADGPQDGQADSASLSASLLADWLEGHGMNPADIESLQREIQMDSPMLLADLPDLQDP
Assay [7] has as its target Serine/threonine-protein kinase PAK 4 (Homo sapiens, UniProt O96013).
Assay [8] has as its target Membrane-associated progesterone receptor component 1 (Homo sapiens, UniProt O00264).
Another assay addresses T4, Rab-like protein 3 (Homo sapiens, UniProt Q5HYI8).
T4 sequence (Q5HYI8 whole entry): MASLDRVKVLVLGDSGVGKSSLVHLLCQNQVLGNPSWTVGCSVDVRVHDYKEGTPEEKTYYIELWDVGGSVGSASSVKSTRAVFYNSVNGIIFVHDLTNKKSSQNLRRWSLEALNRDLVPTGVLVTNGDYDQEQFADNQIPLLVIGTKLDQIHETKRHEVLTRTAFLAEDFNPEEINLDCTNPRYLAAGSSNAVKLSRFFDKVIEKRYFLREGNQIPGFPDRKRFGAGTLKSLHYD

The structures appear in SMILES notation. Activity calls are given as the source filed them. Bounds are passed on as bounds.
Also: in the data inactive means no Kd found up to 30 µM.

Chain of Putative heat shock protein HSP 90-beta 2 (Q58FF8 whole entry): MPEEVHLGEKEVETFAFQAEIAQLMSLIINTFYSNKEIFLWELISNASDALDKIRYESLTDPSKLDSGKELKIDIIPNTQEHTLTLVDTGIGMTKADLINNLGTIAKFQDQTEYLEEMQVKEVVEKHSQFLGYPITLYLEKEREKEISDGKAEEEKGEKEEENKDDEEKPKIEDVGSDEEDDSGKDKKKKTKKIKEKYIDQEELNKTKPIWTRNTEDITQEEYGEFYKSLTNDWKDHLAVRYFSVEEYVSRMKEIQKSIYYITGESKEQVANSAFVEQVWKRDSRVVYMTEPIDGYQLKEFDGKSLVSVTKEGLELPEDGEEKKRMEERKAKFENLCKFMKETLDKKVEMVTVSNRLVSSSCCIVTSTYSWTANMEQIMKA
Chain of Membrane-associated progesterone receptor component 1 (O00264 whole entry): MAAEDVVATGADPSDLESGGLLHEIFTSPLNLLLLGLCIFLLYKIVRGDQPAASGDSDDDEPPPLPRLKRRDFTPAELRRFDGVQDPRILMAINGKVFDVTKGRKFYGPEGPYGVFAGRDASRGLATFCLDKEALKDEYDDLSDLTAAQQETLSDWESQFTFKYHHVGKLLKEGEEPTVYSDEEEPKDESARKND
Chain of Serine/threonine-protein kinase PAK 4 (O96013 whole entry): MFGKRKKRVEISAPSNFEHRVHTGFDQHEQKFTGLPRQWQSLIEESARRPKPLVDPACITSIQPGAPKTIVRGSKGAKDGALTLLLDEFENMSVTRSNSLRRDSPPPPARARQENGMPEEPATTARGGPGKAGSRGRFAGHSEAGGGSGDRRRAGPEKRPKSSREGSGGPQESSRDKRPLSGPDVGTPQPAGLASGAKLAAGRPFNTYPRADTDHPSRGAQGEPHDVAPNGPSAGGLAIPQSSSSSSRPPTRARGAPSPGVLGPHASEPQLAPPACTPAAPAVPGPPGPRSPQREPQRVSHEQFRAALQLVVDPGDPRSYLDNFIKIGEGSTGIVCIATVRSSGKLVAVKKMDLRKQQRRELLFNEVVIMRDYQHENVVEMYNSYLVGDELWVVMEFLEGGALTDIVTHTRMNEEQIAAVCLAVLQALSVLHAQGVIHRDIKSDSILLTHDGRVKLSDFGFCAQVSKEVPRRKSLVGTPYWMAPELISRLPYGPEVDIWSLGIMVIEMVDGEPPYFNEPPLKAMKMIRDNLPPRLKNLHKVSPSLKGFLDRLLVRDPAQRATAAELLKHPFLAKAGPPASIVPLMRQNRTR

For `NC1(c2ccc(-c3nc4ccn5c(=O)[nH]nc5c4cc3-c3ccccc3)cc2)CCC1` [MK-2206], the Kd (in assay [1]; in assay [2]; at Adenosine kinase; in assay [3]; in assay [4]; in [5]) was > 30 µM (inactive) throughout. Further, the Kd (in assay [6]; in assay [7]; in assay [8]; at Rab-like protein 3) was > 30 µM (inactive) each time.
Turning to `Cn1cc(-c2cnc3ccc4ccc(CS(=O)(=O)NCc5ccccn5)cc4c(=O)c3c2)cn1` [MK-8033], the Kd (in [1]; in assay [2]; on Adenosine kinase; in assay [3]; in [4]; in [5]) was > 30 µM (inactive) throughout. Moreover, the Kd (in [6]; in assay [7]; in assay [8]; on Rab-like protein 3) was > 30 µM (inactive) throughout.
In the case of `FC(F)(F)c1ccc(/C=C/c2nc(COc3ccc(CCCCn4ccnn4)cc3)co2)cc1` [MUBRITINIB], the Kd (in assay [1]; in assay [2]; at Adenosine kinase; in assay [3]; in assay [4]; in assay [5]) was > 30 µM (inactive) each time. The Kd (in [6]; in [7]; in assay [8]; on Rab-like protein 3) was > 30 µM (inactive) throughout.
Take `CCCCCCCCCCCCCCCCCCOP(=O)([O-])OC1CC[N+](C)(C)CC1` [PERIFOSINE]: the Kd (in assay [1]; in assay [2]; on Adenosine kinase; in assay [3]; in [4]; in [5]) was > 30 µM (inactive) throughout. In addition, the Kd (in assay [6]; in assay [7]; in assay [8]; on Rab-like protein 3) was > 30 µM (inactive) throughout.
For `Cc1cnc(NC(=O)Nc2cc(Br)c(C)cc2OC[C@@H]2CNCCO2)cn1` [RABUSERTIB], the Kd (in assay [1]; in assay [2]; on Adenosine kinase; in [3]; in assay [4]; in assay [5]) was > 30 µM (inactive) in each case. For the same compound, the Kd (in assay [6]; in [7]; in assay [8]; at Rab-like protein 3) was > 30 µM (inactive) throughout.
`O=c1[nH]ccc2cc(OC3CCNCC3)ccc12` [SAR-407899 FREE BASE]: the Kd in assay [1] was > 30 µM (inactive); in [2] it was > 30 µM (inactive); at Adenosine kinase, > 30 µM (inactive); in assay [3], 0.013 µM; in [4], > 30 µM (inactive); in [5], > 30 µM (inactive). The Kd (in [6]; in [7]; in assay [8]; on Rab-like protein 3) was > 30 µM (inactive) each time.
For `Cn1cc(-c2cnn3c(N)c(Br)c([C@@H]4CCCNC4)nc23)cn1` [SCH-900776], the Kd in assay [1] is > 30 µM (inactive); in assay [2], > 30 µM (inactive); at Adenosine kinase, > 30 µM (inactive); in assay [3], 2.68 µM; in [4] it was > 30 µM (inactive); in assay [5], > 30 µM (inactive). The Kd in [6] was > 30 µM (inactive); in assay [7], 2.9 µM; in [8] it was > 30 µM (inactive); at Rab-like protein 3, > 30 µM (inactive).
Regarding `CO[C@H]1C[C@@H]2CC[C@@H](C)[C@@](O)(O2)C(=O)C(=O)N2CCCC[C@H]2C(=O)O[C@H]([C@H](C)C[C@@H]2CC[C@@H](OC(=O)C(C)(CO)CO)[C@H](OC)C2)CC(=O)[C@H](C)/C=C(\C)[C@@H](O)[C@@H](OC)C(=O)[C@H](C)C[C@H](C)/C=C/C=C/C=C/1C` [TEMSIROLIMUS], the Kd (in [1]; in [2]; on Adenosine kinase; in [3]; in assay [4]; in assay [5]) was > 30 µM (inactive) in each case. Also, the Kd (in assay [6]; in assay [7]; in [8]; on Rab-like protein 3) was > 30 µM (inactive) throughout.
As for `COc1cc2c(Nc3ccc(Cl)c(Cl)c3F)ncnc2cc1OC[C@@H]1C[C@@H]2CN(C)C[C@@H]2C1` [TESEVATINIB], the Kd (in assay [1]; in assay [2]; on Adenosine kinase; in [3]; in assay [4]; in assay [5]) was > 30 µM (inactive) each time. In addition, the Kd (in assay [6]; in assay [7]; in assay [8]; on Rab-like protein 3) was > 30 µM (inactive) each time.
For `O=C(Cc1ccc(-c2ccc(OCCN3CCOCC3)cc2)cn1)NCc1ccccc1` [TIRBANIBULIN], the Kd (in assay [1]; in assay [2]; on Adenosine kinase; in assay [3]; in assay [4]; in [5]) was > 30 µM (inactive) each time. Also, the Kd (in [6]; in [7]; in assay [8]; at Rab-like protein 3) was > 30 µM (inactive) each time.

As a reminder, the Kd is a measure of binding affinity in units of concentration.
